Read-outs that look alike come from different tables or passages of the source.
Columns and labels:
[1] = system: rhythmic bladder-voiding contractions in anaesthetised rats; test: Rhythmic bladder-voiding contractions induced by bladder filling in anaesthetised rats; type: in vivo, rat; conditions: for BLADDER CONTRACTIONS quiescence time: mean ± SEM; for ED10min (extrapolated dose inducing 10 min of bladder quiescence): linear regression
Protocol: The animals were housed with free access to food and water and maintained on a forced 12-hour alternating light-dark cycle at 22-24° C. for at least one week, except during the experiment. […] The catheter was tied in place with a ligature around the external urethral orifice and was connected to conventional pressure transducers (Statham P23 ID/P23 XL). […] The bladder was then filled via the recording catheter by incremental volumes of warm (37° C.) saline until reflex bladder-voiding contractions occurred (usually 0.8-1.5 ml). For intravenous injection of bioactive compounds, PE 50 polyethylene tubing filled with physiological saline was inserted into the jugular vein.
From the cystometrogram, the number of contractions recorded 15 minutes before (basal values) and after treatment, as well as the mean amplitude of these contractions (mean height of the peaks in mmHg), were evaluated.
Morphine was tested, too, as a reference standard for this model.

conscious rats = test: Cystometric parameters in conscious rats (bladder infused with saline); type: in vivo, rat
Protocol: Male Sprague-Dawley rats [Crl: CD® (SD) IGS BR] of 300-400 g b.w. supplied by Charles River Italia were used. The animals were housed with free access to food and water and maintained on a forced 12-hour-light/12-hour-dark cycle at 22-24° C. of temperature, except during the experiment. To quantify urodynamic parameters in conscious rats, cystometrographic studies were performed according to the procedure previously reported (Guarneri et al., Pharmacol. Res. 24: 75, 1991).
Briefly, the rats were anaesthetized by intraperitoneal administration of 3 ml/kg of Equithensin solution (pentobarbital 30 mg/kg and chloral hydrate 125 mg/kg) and placed in a supine position. An approximately 10 mm long midline incision was made in the shaved and cleaned abdominal wall. The urinary bladder was gently freed from adhering tissues, emptied and then cannulated via an incision in the bladder body, using a polyethylene cannula (0.58 mm internal diameter, 0.96 mm external diameter) which was permanently sutured with silk thread. For intravenous bolus injection, a similar polyethylene tubing filled with physiological saline containing sodium heparin (40 I.U./ml) was inserted into the jugular vein. The cannulae were exteriorized through a subcutaneous tunnel in the retroscapular area, where they were connected to a plastic adapter in order to avoid the risk of removal by the animal. For drug testing, the rats were utilized one day after implantation.
On the day of the experiment, the rats were placed in modified Bollman cages, i.e., restraining cages that were large enough to permit the rats to adopt a normal crouched posture, but narrow enough to prevent turning around. After a stabilization period of about 20 minutes, the free tip of the bladder cannula was connected through a T-shaped tube to a pressure transducer (Statham P23XL) and to a peristaltic pump (Gilson minipuls 2) for continuous infusion of a warm (37° C.) saline solution into the urinary bladder, at a constant rate of 0.1 ml/minute. The intraluminal-pressure signal during infusion of saline into the bladder was continuously recorded on a polygraph (Rectigraph-8K San-ei with BM614/2 amplifier from Biomedica Mangoni) and, from the cystometrogram, two urodynamic parameters were evaluated: bladder volume capacity (BVC) and micturition pressure (MP). BVC (in ml) is defined as the volume of saline infused into the bladder necessary to induce detrusor contraction followed by micturition. MP (in mmHg) is defined as the maximal intravesical pressure caused by contraction during micturition. Basal BVC and MP values were evaluated as the mean of the values observed in the cystometrograms recorded in an initial period of 30-60 minutes. At this point in the assay, the infusion was interrupted and the test compounds were administered either intravenously by the jugular catheter or orally by a stomach tube. The bladder infusion restarted and changes in BVC and MP were evaluated from the mean values obtained in the cystometrograms observed during 1, 2, 3, 4, and 5 hours after treatment. The compounds were administered in a volume of 1 ml/kg and 2 ml/kg for intravenous and oral administration routes, respectively. Groups of control animals received the same amount of vehicle corresponding to a solution of 8% dimethylformamide and 8% Tween 80 in water (final concentrations) for intravenous, or a solution of 0.5% methocel in water for oral route.
Under the given test conditions, measurement of BVC is equivalent to measurement of interval time between micturitions.
All data were expressed as mean±standard error. The percent changes of BVC and MP relative to the basal values, as well as Δ values (difference in ml or in mmHg) of BVC and MP (BVC or MP at time “x” minus basal value), were also evaluated for each rat/time. In the figures, data were reported as percentage changes relative to basal values. […]

mGlu2 = mGlu2 (Homo sapiens, UniProt Q14416); conditions: cited from earlier work; for IC50: literature, functional models
Sequence of mGlu2 (Q14416 19-872): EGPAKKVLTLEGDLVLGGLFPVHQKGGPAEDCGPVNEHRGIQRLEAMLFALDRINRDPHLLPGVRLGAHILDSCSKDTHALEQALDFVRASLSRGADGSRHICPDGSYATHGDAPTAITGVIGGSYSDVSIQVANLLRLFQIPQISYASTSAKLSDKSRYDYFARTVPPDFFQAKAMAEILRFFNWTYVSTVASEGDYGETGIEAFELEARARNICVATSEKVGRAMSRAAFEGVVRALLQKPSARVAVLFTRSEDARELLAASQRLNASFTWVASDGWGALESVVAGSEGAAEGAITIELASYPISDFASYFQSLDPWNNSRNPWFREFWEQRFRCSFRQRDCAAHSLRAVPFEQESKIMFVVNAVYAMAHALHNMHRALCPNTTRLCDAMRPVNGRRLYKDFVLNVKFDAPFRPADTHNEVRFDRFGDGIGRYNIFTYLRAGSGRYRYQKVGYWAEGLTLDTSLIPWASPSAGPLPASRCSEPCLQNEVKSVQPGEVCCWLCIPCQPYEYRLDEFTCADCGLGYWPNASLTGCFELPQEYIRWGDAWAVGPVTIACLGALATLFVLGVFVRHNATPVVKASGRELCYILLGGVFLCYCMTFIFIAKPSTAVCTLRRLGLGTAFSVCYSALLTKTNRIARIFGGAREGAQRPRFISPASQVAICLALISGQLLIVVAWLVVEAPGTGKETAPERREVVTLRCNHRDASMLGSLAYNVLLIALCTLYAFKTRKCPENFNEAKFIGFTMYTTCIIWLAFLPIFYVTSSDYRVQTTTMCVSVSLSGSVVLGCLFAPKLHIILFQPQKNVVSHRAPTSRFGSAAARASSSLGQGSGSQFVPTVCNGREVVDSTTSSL

mGlu1a = mGlu1a (Homo sapiens, UniProt Q13255); conditions: literature, functional models; cited from earlier work
Sequence of mGlu1a (Q13255 19-1194): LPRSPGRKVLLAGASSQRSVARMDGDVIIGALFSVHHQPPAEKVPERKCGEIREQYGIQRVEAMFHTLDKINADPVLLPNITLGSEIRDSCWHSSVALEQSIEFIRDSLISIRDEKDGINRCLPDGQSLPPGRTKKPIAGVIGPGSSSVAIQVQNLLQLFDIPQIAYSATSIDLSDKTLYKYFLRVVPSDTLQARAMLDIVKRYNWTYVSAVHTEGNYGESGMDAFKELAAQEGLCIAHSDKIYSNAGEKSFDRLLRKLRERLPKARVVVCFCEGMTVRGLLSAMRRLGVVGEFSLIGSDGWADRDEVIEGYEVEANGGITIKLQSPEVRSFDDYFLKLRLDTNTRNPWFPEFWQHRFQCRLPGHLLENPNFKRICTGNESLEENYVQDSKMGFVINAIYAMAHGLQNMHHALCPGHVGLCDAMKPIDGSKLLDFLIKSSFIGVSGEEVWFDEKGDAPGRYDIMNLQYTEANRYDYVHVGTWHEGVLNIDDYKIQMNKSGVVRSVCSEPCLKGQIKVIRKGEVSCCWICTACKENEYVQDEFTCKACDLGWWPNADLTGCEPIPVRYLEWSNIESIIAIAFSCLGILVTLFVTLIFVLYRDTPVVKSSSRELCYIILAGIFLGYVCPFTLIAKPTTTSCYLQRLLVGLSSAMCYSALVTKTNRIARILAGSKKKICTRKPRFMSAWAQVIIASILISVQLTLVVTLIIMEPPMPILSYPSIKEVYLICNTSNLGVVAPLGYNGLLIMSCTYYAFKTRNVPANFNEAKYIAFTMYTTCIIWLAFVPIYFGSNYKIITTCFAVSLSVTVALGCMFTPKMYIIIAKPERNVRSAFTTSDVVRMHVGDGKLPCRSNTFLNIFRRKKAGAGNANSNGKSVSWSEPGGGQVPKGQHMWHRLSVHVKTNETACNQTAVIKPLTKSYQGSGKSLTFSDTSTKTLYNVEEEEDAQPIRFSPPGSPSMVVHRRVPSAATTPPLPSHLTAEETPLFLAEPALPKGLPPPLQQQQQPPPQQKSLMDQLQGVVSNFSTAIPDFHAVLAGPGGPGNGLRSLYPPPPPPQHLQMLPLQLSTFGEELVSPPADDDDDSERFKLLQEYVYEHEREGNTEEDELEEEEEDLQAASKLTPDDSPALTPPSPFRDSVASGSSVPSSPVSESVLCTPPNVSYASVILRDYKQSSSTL

mGlu7 = mGlu7 (Homo sapiens, UniProt Q14831); conditions: literature, functional models; cited from earlier work
mGlu8 = mGlu8 (Homo sapiens, UniProt O00222); conditions: literature, functional models; cited from earlier work
mGlu4a = mGlu4a (Homo sapiens, UniProt Q14833); conditions: literature, functional models; cited from earlier work
mGlu5 [2] = molecular target: T1, mGlu5 (Rattus norvegicus, UniProt P31424); conditions: rat forebrain; for Ki: read-out: mGlu5 Ki, [3H]MPEP
T1 sequence (P31424 21-1203): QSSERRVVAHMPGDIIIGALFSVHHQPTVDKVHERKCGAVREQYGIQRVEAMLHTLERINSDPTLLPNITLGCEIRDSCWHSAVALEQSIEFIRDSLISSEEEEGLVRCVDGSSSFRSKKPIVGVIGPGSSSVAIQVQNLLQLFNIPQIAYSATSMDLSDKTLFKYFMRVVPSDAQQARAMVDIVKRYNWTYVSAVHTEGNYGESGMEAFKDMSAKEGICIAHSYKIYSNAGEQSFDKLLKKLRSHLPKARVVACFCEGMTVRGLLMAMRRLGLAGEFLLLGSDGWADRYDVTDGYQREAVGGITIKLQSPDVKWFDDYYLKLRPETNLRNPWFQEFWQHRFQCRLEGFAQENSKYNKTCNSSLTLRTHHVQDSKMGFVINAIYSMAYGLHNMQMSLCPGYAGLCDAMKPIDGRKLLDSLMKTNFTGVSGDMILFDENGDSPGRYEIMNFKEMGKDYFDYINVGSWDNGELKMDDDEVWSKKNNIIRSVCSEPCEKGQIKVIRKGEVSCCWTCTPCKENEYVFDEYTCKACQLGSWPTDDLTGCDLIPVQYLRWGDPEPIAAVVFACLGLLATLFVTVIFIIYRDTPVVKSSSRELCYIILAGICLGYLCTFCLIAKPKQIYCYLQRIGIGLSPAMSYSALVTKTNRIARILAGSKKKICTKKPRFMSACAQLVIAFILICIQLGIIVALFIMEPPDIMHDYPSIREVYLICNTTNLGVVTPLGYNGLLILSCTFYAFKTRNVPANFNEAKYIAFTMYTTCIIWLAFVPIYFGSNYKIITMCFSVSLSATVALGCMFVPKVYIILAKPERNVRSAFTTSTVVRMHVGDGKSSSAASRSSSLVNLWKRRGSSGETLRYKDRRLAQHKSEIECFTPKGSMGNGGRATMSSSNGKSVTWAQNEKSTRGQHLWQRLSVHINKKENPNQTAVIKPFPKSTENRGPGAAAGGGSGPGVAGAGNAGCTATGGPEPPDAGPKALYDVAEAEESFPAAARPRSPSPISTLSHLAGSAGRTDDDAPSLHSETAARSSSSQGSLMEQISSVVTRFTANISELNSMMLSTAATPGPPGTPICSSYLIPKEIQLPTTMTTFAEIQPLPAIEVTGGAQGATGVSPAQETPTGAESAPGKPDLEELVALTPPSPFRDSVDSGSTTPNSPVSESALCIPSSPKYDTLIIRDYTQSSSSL
Protocol: (§1) Male Sprague Dawley rats (200-300 g, Charles River, Italy) were killed by cervical dislocation and the forebrain (cortex, striatum and hippocampus) and cerebellum were homogenized (2×20 sec) in 50 vols of cold 50 mM Tris buffer pH 7.4, using a Politron homogenizer (Kinematica). […] The final pellets were frozen and stored at −80° C. until use.
(§2) ii) mGlu5: On experimental section pellets from rat forebrain were resuspended in 100 vols of 20 mM HEPES, 2 mM MgCl2, 2 mM CaCl2, pH 7.4.
(§3) The filters were then washed with cold buffer and the radioactivity retained on the filters was counted by liquid scintillation spectrometry.
(§4) Data were expressed as the mean of pKi(−log Ki)±SE.

mGlu1 = molecular target: T2, mGlu1 (Rattus norvegicus, UniProt P23385); test: Radioligand binding assay at mGlu1, [3H]quisqualic acid, rat cerebellum membranes; conditions: for Ki: [3H]quisqualic acid
T2 construct: pellets from rat cerebellum were resuspended; from tissue; host or cells: rat cerebellum membranes (male Sprague Dawley)
T2 sequence (P23385 19-1199): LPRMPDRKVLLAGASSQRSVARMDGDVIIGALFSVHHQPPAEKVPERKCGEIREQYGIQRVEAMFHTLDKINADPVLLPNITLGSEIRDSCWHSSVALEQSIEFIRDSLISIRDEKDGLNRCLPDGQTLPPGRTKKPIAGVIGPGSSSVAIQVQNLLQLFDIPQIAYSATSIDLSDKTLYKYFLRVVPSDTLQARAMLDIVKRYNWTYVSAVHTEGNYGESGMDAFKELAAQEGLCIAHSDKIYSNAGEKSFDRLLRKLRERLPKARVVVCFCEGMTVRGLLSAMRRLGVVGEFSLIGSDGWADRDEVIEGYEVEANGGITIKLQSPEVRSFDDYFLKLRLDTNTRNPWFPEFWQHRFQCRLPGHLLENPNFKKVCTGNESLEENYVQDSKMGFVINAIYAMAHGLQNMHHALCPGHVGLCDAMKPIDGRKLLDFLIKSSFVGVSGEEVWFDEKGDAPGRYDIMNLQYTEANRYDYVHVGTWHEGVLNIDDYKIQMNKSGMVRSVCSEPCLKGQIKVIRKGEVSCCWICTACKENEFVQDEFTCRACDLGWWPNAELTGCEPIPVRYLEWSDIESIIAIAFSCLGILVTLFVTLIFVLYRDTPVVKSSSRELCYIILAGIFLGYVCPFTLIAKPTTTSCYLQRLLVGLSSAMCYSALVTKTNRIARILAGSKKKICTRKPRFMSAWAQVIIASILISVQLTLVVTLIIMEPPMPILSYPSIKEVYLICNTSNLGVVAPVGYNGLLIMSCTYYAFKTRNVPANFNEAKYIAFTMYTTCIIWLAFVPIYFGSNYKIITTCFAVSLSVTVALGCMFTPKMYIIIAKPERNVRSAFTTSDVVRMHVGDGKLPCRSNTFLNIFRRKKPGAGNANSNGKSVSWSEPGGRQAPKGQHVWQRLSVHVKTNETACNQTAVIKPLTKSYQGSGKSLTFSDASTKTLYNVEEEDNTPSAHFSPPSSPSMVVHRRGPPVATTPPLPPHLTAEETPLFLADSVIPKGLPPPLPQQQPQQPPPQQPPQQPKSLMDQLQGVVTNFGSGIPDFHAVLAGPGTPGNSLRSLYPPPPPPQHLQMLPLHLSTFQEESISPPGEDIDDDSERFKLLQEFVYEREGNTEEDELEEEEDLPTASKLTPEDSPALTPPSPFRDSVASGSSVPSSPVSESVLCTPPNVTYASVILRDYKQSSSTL
Protocol: as §1
i) mGlu1: On experimental section pellets from rat cerebellum were resuspended in 150-200 vols of 20 mM N-2-hydroxyethylpiperazine-N′-2-ethanesulfonic acid (HEPES), 2 mM MgCl2, 2 mM CaCl2, pH 7.4.
as §3, §4

[3] = molecular target: Group II (mGlu2 + mGlu3) receptors; test: Radioligand binding assay at Group II (mGlu2+mGlu3), [3H]LY341495, rat forebrain membranes; conditions: for Ki: [3H]LY341495
Protocol: as §1
iii) Group II (mGlu2+mGlu3): On experimental section pellets from rat forebrain were resuspended in 250 vols of 20 mM HEPES, 2 mM MgCl2, 2 mM CaCl2, pH 7.4. The membranes were incubated in a final volume of 1 ml for 30 min at 0° C. with 1 nM [^3H]LY341495 in the absence or presence of competing drugs.
as §3, §4

mGlu5 [4] = molecular target: T1, mGlu5; test: biochemical
Protocol: as §1, §2, §3, §4

mGlu5a = mGlu5a (Homo sapiens, UniProt P41594); conditions: literature, functional models; cited from earlier work
mGlu6 = mGlu6 (Homo sapiens, UniProt O15303); conditions: literature, functional models; cited from earlier work
[5] = system: conscious rats with bladder infused with dilute acetic acid; test: Cystometric parameters in conscious rats with bladder infused with dilute acetic acid; type: in vivo, rat; conditions: 10 mg/kg oral, bladder infused with 0.2% acetic acid
Protocol: The method used was that described in Example 4. The basal BVC and MP values were evaluated as the mean of the values observed in the cystometrograms recorded over an initial period of 30-60 minutes. At this point in the test, the infusion was stopped and the test compounds were administered orally via gastric intubation. Infusion into the bladder was resumed, replacing the warm saline solution with dilute acetic acid (0.2%) and the variations in BVC and MP recorded were evaluated as mean values obtained in the cystometrograms 1, 2, 3 and 4 hours after the treatment, relative to the basal values. The compounds were administered in a volume of 2 ml/kg and the groups of control animals received the same amount of vehicle (0.5% Methocel in water) orally.
The statistical analysis of the data was performed as reported in Example 4.

[6] = i.v., MPEP 3 and 10 mg/kg, SIB 1893 50 mg/kg, FIG. 2

Structure (SMILES) | BLADDER CONTRACTIONS quiescence time ([1]; 30 μg/kg i.v.) | BLADDER CONTRACTIONS quiescence time ([1]; 100 μg/kg i.v.) | BLADDER CONTRACTIONS quiescence time ([1]; 300 μg/kg i.v.) | ED10min (extrapolated dose inducing 10 min of bladder quiescence) ([1]; i.v.) | IC50 (mGlu1a) | IC50 (mGlu4a) | inhibition of the specific binding of [3H]MPEP to mGlu5 receptor (in words) (mGlu5 [2]) | Ki (mGlu1) | Ki ([3]; rat forebrain) | IC50 (mGlu5a) | BLADDER CONTRACTIONS quiescence time ([1]; 1000 μg/kg i.v.) | BLADDER CONTRACTIONS quiescence time ([1]; 3000 μg/kg i.v.) | activity as inhibitors of isovolumic voiding contractions (in words) ([1]; i.v., anaesthetised rats) | other results
CN1CC[C@]23c4c5ccc(O)c4O[C@H]2[C@@H](O)C=C[C@H]3[C@H]1C5 [Morphine] | 6.89 ± 2.11 min | 13.83 ± 2.40 min | 18.17 ± 3.60 min | 0.05 mg/kg | – | – | – | – | – | – | – | – | – | BLADDER CONTRACTIONS quiescence time ([1]; 10 μg/kg i.v.): 2.76 ± 0.93 min
Cc1cccc(C=Cc2ccccc2)n1 [SIB 1893, 2-methyl-6-(2-phenylethenyl)pyridine] | – | – | – | 1.928 mg/kg | > 30 µM | > 30 µM | weaker affinity | > 10 µM | > 10 µM | 0.3 µM | 4.44 ± 1.05 min | 15.57 ± 1.34 min | active | bladder volume capacity (BVC) (conscious rats; 50 mg/kg i.v., FIG. 1): significantly increased the BVC only in comparison with the basal values; micturition pressure (MP) (conscious rats; [6]): only mild effects on the micturition pressure; IC50 (mGlu2): > 30 µM; IC50 (mGlu7): > 30 µM; IC50 (mGlu8): > 30 µM; Ki (mGlu5 [4]): 0.859 µM; BLADDER CONTRACTIONS quiescence time ([1]; 2000 μg/kg i.v.): 8.00 ± 0.78 min; amplitude of contractions when contractions resumed, relative to before treatment (in words) ([1]; i.v., anaesthetised rats): no difference in the amplitude; IC50 (mGlu6): > 30 µM
N[C@](CC1c2ccccc2Oc2ccccc21)(C(=O)O)[C@H]1C[C@@H]1C(=O)O [LY 341495] | – | 2.45 ± 1.39 min | 4.48 ± 1.31 min | >1 mg/kg | – | – | – | – | 0.004 µM | – | 4.65 ± 2.11 min | – | inactive | displacement of specific binding of [3H]LY341495 to Group II receptors (in words) ([3]; rat forebrain): displaced with high affinity
Cc1nc(C#Cc2cccnc2)cs1 [MTEP, 3-(2-methylthiazol-4-yl)ethynylpyridine] | 5.52 ± 1.09 min | 8.73 ± 2.11 min | 13.90 ± 2.10 min | 0.106 mg/kg | – | – | most potent inhibitors | – | – | – | 20.96 ± 4.66 min | – | active | –
N[C@](CC1c2ccccc2Oc2ccccc21)(C(=O)O)[C@H]1C[C@@H]1C(=O)O [[^3H]LY341495] | – | – | – | – | – | – | – | – | – | – | – | – | – | Kd ([3]; rat forebrain membranes, saturable binding, read-out: Kd of radioligand binding to mGlu2+mGlu3 subtypes): 0.0025 µM
Cc1cccc(C#Cc2ccccc2)n1 [MPEP, 2-methyl-6-(phenylethynyl)pyridine] | 3.90 ± 1.37 min | 7.09 ± 1.04 min | 12.64 ± 1.72 min | 0.15 mg/kg | > 100 µM | > 100 µM | most potent inhibitors | > 10 µM | > 1 µM | – | 22.46 ± 5.35 min | – | active | bladder volume capacity (BVC) (conscious rats; 10 mg/kg i.v., vs basal values and vs control group, FIG. 1): significant increases in BVC; bladder volume capacity (BVC) (conscious rats; 3 and 10 mg/kg i.v., FIG. 1): effective in increasing the bladder volume capacity; micturition pressure (MP) (conscious rats; [6]): only mild effects on the micturition pressure; bladder volume capacity (BVC) (conscious rats; oral, 3-10 and 30 mg/kg, effect at 10 mg/kg or higher, FIG. 3): significant and dose-dependent increases in the BVC; micturition pressure (MP) (conscious rats; oral, 10 and 30 mg/kg, vs control group, FIG. 4): significantly reduced the MP; IC50 (mGlu2): > 100 µM; bladder volume capacity (BVC) ([5]; FIG. 5): effective in antagonizing the reduction of the bladder volume capacity; micturition pressure (MP) ([5]; FIG. 6): no effect on the micturition pressure; IC50 (mGlu7): > 100 µM; IC50 (mGlu8): > 100 µM; IC50 (mGlu6): > 100 µM
NC1(C(=O)O)CCc2cc(C(=O)O)ccc21 (stereo not shown) [AIDA] | – | – | – | >10 mg/kg | – | > 1000 µM | – | > 10 µM | > 10 µM | > 1000 µM | 1.50 ± 0.54 min | 2.33 ± 1.44 min | inactive | mGlu2 activity (in words) (mGlu2; literature (Moroni et al. 1997)): Weak; Ki (mGlu5 [2]): > 10 µM; BLADDER CONTRACTIONS quiescence time ([1]; 10000 μg/kg i.v.): 2.35 ± 0.50 min
Cc1cc(C(=O)O)ccc1[C@H](N)C(=O)O [LY 367385] | – | – | – | >10 mg/kg | 8.8 µM | – | – | 6 µM | > 1 µM | > 100 µM | – | 1.00 ± 0.29 min | inactive | Ki (mGlu5 [2]): > 10 µM; displacement of [3H]quisqualic acid from its binding sites (in words) (mGlu1): significantly displaced; BLADDER CONTRACTIONS quiescence time ([1]; 10000 μg/kg i.v.): 1.95 ± 0.30 min
